Values quoted from earlier work, collected in PMC10651775 (Blood, 2022).

System: R/R ATL
Conditions: phase 2 study (5/16); cited from earlier work

In the case of `Nc1cccc2c1CN(C1CCC(=O)NC1=O)C2=O` (stereo not shown) [lenalidomide], the “ORR in nodal or extranodal lesions” value is given as 31%.
